Reference: US20250388568A1, “NLRP3 INHIBITORS” (Kodiak Sciences Inc., priority 2022, published 2025)
Like-named read-outs stand apart in the source and are kept apart here.

What was measured:
[1] = system: IL-1β release in THP-1-ASC-GFP cells after NLRP3 activation; assay: IC50 determination of IL-1β release inhibition in THP-1-ASC-GFP cells; format: cell-based; details: THP1-ASC-GFP, read-out: IL-1β IC50 (nM) THP1 cells
Protocol: Example 78: IC50 Determination of IL-1β Release Inhibition in THP-1-ASC-GFP Cells The compounds were tested for their ability to inhibit the IL-1β release in the THP-1-ASC-GFP cells after NLRP3 activation. THP1-ASC-GFP cells (Invivogen […] thawed following Invivogen's initial culture procedure. […] The growth medium was composed of RPM1640 medium (Gibco 32404-014), 10% heat inactivated (HI) serum (Gibco A3840102), Pen/Strep (Quality Biologics 118-089-721), 10 mM Hepes (Quality Biologics 118-089-721), 2 mM Glutamax (GIBCO 35050-061), 100 μg/mL normocin (Invivogen ant-nr), 100 μg/mL Zeocin (Invivogen ant-zn). The growth medium was freshly prepared once a week and sterile filtered. Assay medium consisted of RPMI 1640 medium, 10 mM Hepes, 2 mM Glutamax and Pen/Strep. To the assay medium, 1 μg/mL LPS (Invivogen tlrl-3pelps) was added. A cell suspension was prepared with assay medium and LPS at 1.25M cells per mL. With an electronic pipet, 80 μl of cell suspension was added to U bottom 96 well polystyrene plates (VWR 10062-902) leaving columns 1 and 2 empty. The plates were placed in the incubator for 4 hours. […] DMSO). An hour prior to the end of LPS incubation, a separate 96 deep well plate, Plate B, was prepared with 400 μL of assay media per well, then 2 μL of the stock DMSO solution from Plate A was added to each corresponding well. Plate B was covered to avoid media evaporation. In a 50 mL tube, a solution of nigericin in assay media at […] concentration was prepared. To a new 96 deep well plate, Plate C, 200 μL of this nigericin containing media was dispensed to each well and […] of the test compounds from Plate A to each corresponding well was added. Plate C was covered to avoid media evaporation. After 4 hours of priming, all the media from the LPS treated THP-1 cells in the initial U bottom plate was removed manually. To this plate of primed cells, 80 μL/well test compounds from Plate B was added in duplicate columns (5 compounds tested per plate). The plate was placed in an incubator for 30 min. […] The plate was placed back in the incubator for 1 hour. At the end of 1 hour, the supernatant from this test plate was transferred to a new 96 well V bottom polypropylene plate which was frozen immediately at -80° C. The plate was transferred to -20° C. the next day and awaiting further determination of cytokine IL-1β level. The release of IL-1β into the cell media was determined by MSD® Multi-Spot Assay System (V-Plex, IL-1B kit, […]-4). Following the manufacture's protocol and using the Alternate Protocol 3, Dilute-In-Plate protocol specifically, the level of IL-1β in the above collected supernatant plate was measured as electrochemiluminescent signals. Using MSD DISCOVERY WORKBENCH® analysis software, the signals were converted to the concentration of IL-1β in each well. The IC50 values of the compounds were calculated using the Graph Pad Prism software based on the […] concentration determined. The detection range of IL-1β using MSD kit was approximately […] (based on various lots of standards purchased from MSD).

[2] = system: IL-1β release in U937 cells after NLRP3 activation; assay: IC50 determination of IL-1β release inhibition in U937 cells; format: cell-based; details: Homo sapiens, read-out: IL-1β IC50 (nM) U937 cells
Outline: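 PMA-differentiated U937 cells (90 h) were primed 5 h with 1 μg/mL LPS, pre-incubated 30 min with compound, then stimulated with nigericin for 1 h. Supernatant IL-1β was quantified by MSD electrochemiluminescence. IC50 was derived from IL-1β concentration, with duplicate wells per compound.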

[3] = THP-1-ASC-GFP cells, LPS priming 4 h, nigericin, average of at least three experiments
[4] = U-937, PMA-differentiated U937 cells, LPS priming 5 h, nigericin, average of at least three experiments

IC50 [1, 3] [nM]	IC50 [2, 4] [nM]	Compound	IC50 ([1]; 4 h) [nM]	IC50 ([2]; U-937, 5 h) [nM]
5 to 50	50 to 500	Cc1oc(S(=O)(=O)NC(=O)Nc2c3c(c(F)c4c2CCC4)CCC3)cc1CN1CC[C@@H](O)C1 [Example 39, (R)-N-((8-fluoro-1,2,3,5,6,7-hexahydro-s-indacen-4-yl)carbamoyl)-4-((3-hydroxypyrrolidin-1-yl)methyl)-5-methylfuran-2-sulfonamide]	–	–
5 to 50	5 to 50	Cc1oc(S(=O)(=O)NC(=O)Nc2c3c(c(F)c4c2CCC4)CCC3)cc1CN1C[C@H](O)[C@@H](F)C1 [Example 41, N-((8-fluoro-1,2,3,5,6,7-hexahydro-s-indacen-4-yl)carbamoyl)-4-(((3S,4S)-3-fluoro-4-hydroxypyrrolidin-1-yl)methyl)-5-methylfuran-2-sulfonamide]	–	–
5 to 50	50 to 500	Cc1oc(S(=O)(=O)NC(=O)Nc2c3c(c(F)c4c2CCC4)CCC3)cc1CN1C[C@@H](O)[C@@H](F)C1 [Example 42, N-((8-fluoro-1,2,3,5,6,7-hexahydro-s-indacen-4-yl)carbamoyl)-4-(((3S,4R)-3-fluoro-4-hydroxypyrrolidin-1-yl)methyl)-5-methylfuran-2-sulfonamide]	–	–
< 5	5 to 50	Cc1oc(S(=O)(=O)NC(=O)Nc2c3c(c(F)c4c2CCC4)CCC3)cc1CN1C[C@@H](O)[C@H](F)C1 [Example 43, N-((8-fluoro-1,2,3,5,6,7-hexahydro-s-indacen-4-yl)carbamoyl)-4-(((3R,4R)-3-fluoro-4-hydroxypyrrolidin-1-yl)methyl)-5-methylfuran-2-sulfonamide]	–	–
< 5	5 to 50	Cc1oc(S(=O)(=O)NC(=O)Nc2c3c(c(F)c4c2CCC4)CCC3)cc1CN1CCC[C@@H]1CO [Example 45, (R)-N-((8-fluoro-1,2,3,5,6,7-hexahydro-s-indacen-4-yl)carbamoyl)-4-((2-(hydroxymethyl)pyrrolidin-1-yl)methyl)-5-methylfuran-2-sulfonamide]	–	–
< 5	5 to 50	Cc1cc(S(=O)(=O)NC(=O)Nc2c3c(c(F)c4c2CCC4)CCC3)oc1CN1CC[C@H](O)C1 [Example 51, (S)-N-((8-fluoro-1,2,3,5,6,7-hexahydro-s-indacen-4-yl)carbamoyl)-5-((3-hydroxypyrrolidin-1-yl)methyl)-4-methylfuran-2-sulfonamide]	–	–
50 to 500	5 to 50	CN(Cc1cc(S(=O)(=O)NC(=O)Nc2c3c(c(F)c4c2CCC4)CCC3)nn1C)CC1(O)CCC1 [Example 58, 3-(8-fluoro-1,2,3,5,6,7-hexahydro-s-indacen-4-yl)-1-[5-({[(1-hydroxycyclobutyl)methyl](methyl)amino}methyl)-1-methylpyrazol-3-ylsulfonyl]urea]	–	–
5 to 50	5 to 50	Cn1nc(S(=O)(=O)NC(=O)Nc2c3c(c(F)c4c2CCC4)CCC3)cc1CNCC1(O)CCC1 [Example 59, N-((8-fluoro-1,2,3,5,6,7-hexahydro-s-indacen-4-yl)carbamoyl)-5-((((1-hydroxycyclobutyl)methyl)amino)methyl)-1-methyl-1H-pyrazole-3-sulfonamide]	–	–
5 to 50	50 to 500	Cn1nc(S(=O)(=O)NC(=O)Nc2c3c(c(F)c4c2CCC4)CCC3)cc1CN1CC[C@H](O)C1 [Example 60, (S)-N-((8-fluoro-1,2,3,5,6,7-hexahydro-s-indacen-4-yl)carbamoyl)-5-((3-hydroxypyrrolidin-1-yl)methyl)-1-methyl-1H-pyrazole-3-sulfonamide]	–	–
50 to 500	50 to 500	Cn1nc(S(=O)(=O)NC(=O)Nc2c3c(c(F)c4c2CCC4)CCC3)cc1CN1CC[C@@H](O)C1 [Example 61, (R)-N-((8-fluoro-1,2,3,5,6,7-hexahydro-s-indacen-4-yl)carbamoyl)-5-((3-hydroxypyrrolidin-1-yl)methyl)-1-methyl-1H-pyrazole-3-sulfonamide]	–	–
5 to 50	5 to 50	Cn1nc(S(=O)(=O)NC(=O)Nc2c3c(c(F)c4c2CCC4)CCC3)cc1CN1CCC[C@H]1CO [Example 62, (S)-N-((8-fluoro-1,2,3,5,6,7-hexahydro-s-indacen-4-yl)carbamoyl)-5-((2-(hydroxymethyl)pyrrolidin-1-yl)methyl)-1-methyl-1H-pyrazole-3-sulfonamide]	–	–

The remaining lines, values behind:

Compound	IC50 [1, 3] [nM]	IC50 [2, 4] [nM]	IC50 ([1]; 4 h) [nM]	IC50 ([2]; U-937, 5 h) [nM]
Cc1oc(S(=O)(=O)NC(=O)Nc2c3c(c(F)c4c2CCC4)CCC3)cc1CN(C)CC1(O)CCC1 [Example 35, N-((8-fluoro-1,2,3,5,6,7-hexahydro-s-indacen-4-yl)carbamoyl)-4-((((1-hydroxycyclobutyl)methyl)(methyl)amino)methyl)-5-methylfuran-2-sulfonamide]	< 5	< 5	–	–
Cc1oc(S(=O)(=O)NC(=O)Nc2c3c(c(F)c4c2CCC4)CCC3)cc1CNCC1(O)CCC1 [Example 36, N-((8-fluoro-1,2,3,5,6,7-hexahydro-s-indacen-4-yl)carbamoyl)-4-((((1-hydroxycyclobutyl)methyl)amino)methyl)-5-methylfuran-2-sulfonamide]	5 to 50	50 to 500	–	–
Cc1oc(S(=O)(=O)NC(=O)Nc2c3c(c(F)c4c2CCC4)CCC3)cc1CN(C)CC1(O)CCCC1 [Example 37, N-((8-fluoro-1,2,3,5,6,7-hexahydro-s-indacen-4-yl)carbamoyl)-4-((((1-hydroxycyclopentyl)methyl)(methyl)amino)methyl)-5-methylfuran-2-sulfonamide]	< 5	5 to 50	–	–
Cc1oc(S(=O)(=O)NC(=O)Nc2c3c(c(F)c4c2CCC4)CCC3)cc1CN1CC[C@H](O)C1 [Example 38, (S)—N-((8-fluoro-1,2,3,5,6,7-hexahydro-s-indacen-4-yl)carbamoyl)-4-((3-hydroxypyrrolidin-1-yl)methyl)-5-methylfuran-2-sulfonamide]	–	–	5 to 50	50 to 500
Cc1oc(S(=O)(=O)NC(=O)Nc2c3c(c(F)c4c2CCC4)CCC3)cc1CN1CCC[C@H]1CO [Example 44, (S)-N-((8-fluoro-1,2,3,5,6,7-hexahydro-s-indacen-4-yl)carbamoyl)-4-((2-(hydroxymethyl)pyrrolidin-1-yl)methyl)-5-methylfuran-2-sulfonamide]	5 to 50	5 to 50	–	–
Cc1oc(S(=O)(=O)NC(=O)Nc2c3c(c(Cl)c4c2CCC4)CCC3)cc1CN(C)CC1(O)CCC1 [Example 48, N-((8-chloro-1,2,3,5,6,7-hexahydro-s-indacen-4-yl)carbamoyl)-4-((((1-hydroxycyclobutyl)methyl)(methyl)amino)methyl)-5-methylfuran-2-sulfonamide]	< 5	5 to 50	–	–
Cc1cc(S(=O)(=O)NC(=O)Nc2c3c(c(F)c4c2CCC4)CCC3)oc1CN(C)CC1(O)CCC1 [Example 50, N-((8-fluoro-1,2,3,5,6,7-hexahydro-s-indacen-4-yl)carbamoyl)-5-((((1-hydroxycyclobutyl)methyl)(methyl)amino)methyl)-4-methylfuran-2-sulfonamide]	5 to 50	5 to 50	–	–
Cc1cc(S(=O)(=O)NC(=O)Nc2c3c(c(Cl)c4c2CCC4)CCC3)oc1CN(C)CC1(O)CCC1 [Example 57, N-((8-chloro-1,2,3,5,6,7-hexahydro-s-indacen-4-yl)carbamoyl)-5-((((1-hydroxycyclobutyl)methyl)(methyl)amino)methyl)-4-methylfuran-2-sulfonamide]	5 to 50	5 to 50	–	–
